From patent publication US10683279B2, “Apoptosis signal-regulating kinase 1 inhibitors and methods of use thereof” (Enanta Pharmaceuticals, Inc., priority 2017, dated 2020)

Molecular target: ASK1 (Homo sapiens (Human), UniProt Q99683)
Assay: ASK1 kinase inhibition, HTRF KinEASE Assay System (TR-FRET)
Assay type: biochemical
Conditions: 5 nM ASK1 kinase, 1 uM STK3 peptide substrate, 100 uM ATP, 3 hours
Protocol: The ability (IC50) of compounds to inhibit ASK1 kinase activity was determined by HTRF® KinEASE™ Assay System.
ASK1 was purchased from Thermofisher (Catalogue # PV401.1), ATP was purchased from Sigma (Catalogue # A7699), HTRF® KinEASE™ Assay System was obtained from Cisbio (Bedford, Mass). ½ Area plate was purchased from Perkin Elmer (Catalogue # #6005560). HTRF® KinEASE™-STK is a generic method for measuring serine/threonine kinase activities using a time-resolved fluorescence resonance energy transfer (TR-FRET) immunoassay. The IC50 value for each compound was determined in the presence of compound (various concentration from 0 to 10 μM) and a fixed amount of ATP and peptide substrates. The test compound, luM STK3 peptide substrate, and 5 nM of ASK1 kinase are incubated with kinase reaction buffer containing 50 mM HEPES pH 7.5, 0.01% BRIJ-35, 10 mM MgCl2, and 1 mM EGTA for 30 minutes. 100 uM ATP is added to start kinase reaction and incubated for 3 hours. The STK3-antibody labeled with Eu^3+-Cryptate and 125 nM streptavidin-XL665 are mixed in a single addition with stop reagents provided by the Cisbio kit used to stop the kinase reaction. Fluorescence is detected using an Envision Multilabeled 2014 reader from PerkinElmer. The Fluorescence is measured at 615 nm (Cryptate) and 665 nm (XL665) and a ratio of 665 nm/615 nm is calculated for each well. The resulting TR-FRET is proportional to the phosphorylation level. Staurosporine was used as the positive control. IC50 was determined by XLfit 5.3.
By using above method, the inhibition of ASK1 was tested for the compound of formula (I). IC50 ranges are as follows: A<1 nM; 1 nM<B<10 nM; 10 nM<C<100 nM; 100 nM<D

Sequence of ASK1 (Q99683 whole entry): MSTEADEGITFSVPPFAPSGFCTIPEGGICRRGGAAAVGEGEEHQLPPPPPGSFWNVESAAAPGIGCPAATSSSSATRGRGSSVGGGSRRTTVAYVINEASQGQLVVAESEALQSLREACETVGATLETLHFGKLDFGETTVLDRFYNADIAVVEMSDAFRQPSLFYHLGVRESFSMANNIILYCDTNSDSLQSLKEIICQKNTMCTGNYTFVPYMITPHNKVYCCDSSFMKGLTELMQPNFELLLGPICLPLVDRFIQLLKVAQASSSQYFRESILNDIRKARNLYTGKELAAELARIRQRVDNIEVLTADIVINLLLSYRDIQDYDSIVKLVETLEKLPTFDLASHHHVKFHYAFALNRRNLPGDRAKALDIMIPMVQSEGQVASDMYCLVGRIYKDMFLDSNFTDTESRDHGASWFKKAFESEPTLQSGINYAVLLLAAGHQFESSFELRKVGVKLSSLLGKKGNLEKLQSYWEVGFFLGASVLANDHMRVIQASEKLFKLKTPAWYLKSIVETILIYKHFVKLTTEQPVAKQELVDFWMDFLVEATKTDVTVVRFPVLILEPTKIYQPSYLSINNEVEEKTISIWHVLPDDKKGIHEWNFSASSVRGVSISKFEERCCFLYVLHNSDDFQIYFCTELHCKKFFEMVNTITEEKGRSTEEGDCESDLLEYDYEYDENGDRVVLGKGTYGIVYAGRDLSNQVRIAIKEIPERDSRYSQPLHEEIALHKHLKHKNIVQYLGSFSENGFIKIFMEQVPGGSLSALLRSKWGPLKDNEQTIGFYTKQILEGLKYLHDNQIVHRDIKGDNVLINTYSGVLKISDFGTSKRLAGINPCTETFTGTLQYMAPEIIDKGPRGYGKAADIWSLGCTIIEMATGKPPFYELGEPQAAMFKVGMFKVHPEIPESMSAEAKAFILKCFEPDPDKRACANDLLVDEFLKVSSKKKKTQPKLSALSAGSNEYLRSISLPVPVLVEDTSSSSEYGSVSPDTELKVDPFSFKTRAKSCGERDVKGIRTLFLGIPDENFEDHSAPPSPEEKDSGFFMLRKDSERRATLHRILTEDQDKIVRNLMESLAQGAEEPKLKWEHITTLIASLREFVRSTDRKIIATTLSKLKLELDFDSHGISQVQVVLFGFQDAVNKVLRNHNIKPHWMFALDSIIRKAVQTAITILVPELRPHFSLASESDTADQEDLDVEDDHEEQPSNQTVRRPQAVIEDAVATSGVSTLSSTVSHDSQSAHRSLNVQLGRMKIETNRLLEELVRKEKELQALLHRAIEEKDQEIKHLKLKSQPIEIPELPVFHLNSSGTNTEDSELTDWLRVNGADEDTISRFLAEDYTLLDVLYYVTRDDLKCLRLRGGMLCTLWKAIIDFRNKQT

IC50 | Compound
0.001 to 0.01 µM | Cc1cc(F)c(C(=O)Nc2cccc(-c3nnnn3C(C)C)n2)cc1-n1cnc(C2CC2)c1 [Example 1a, 5-(4-cyclopropyl-1H-imidazol-1-yl)-2-fluoro-N-(6-(1-isopropyl-1H-tetrazol-5-yl)pyridin-2-yl)-4-methylbenzamide]
0.001 to 0.01 µM | Cc1cc(F)c(C(=O)Nc2cccc(-n3nnnc3C(C)C)n2)cc1-n1cnc(C2CC2)c1 [Example 1b, 5-(4-cyclopropyl-1H-imidazol-1-yl)-2-fluoro-N-(6-(5-isopropyl-1H-tetrazol-1-yl)pyridin-2-yl)-4-methylbenzamide]
0.001 to 0.01 µM | Cc1cc(F)c(C(=O)Nc2cccc(-c3nnnn3C3CC3)n2)cc1-n1cnc(C2CC2)c1 [Example 2a, 5-(4-cyclopropyl-1H-imidazol-1-yl)-2-fluoro-N-(6-(1-cyclopropyl-1H-tetrazol-5-yl)pyridin-2-yl)-4-methylbenzamid]
> 0.1 µM | Cc1cc(F)c(C(=O)Nc2cccc(-n3nnnc3C(C)C)n2)cc1-n1cnc(C(F)(F)F)c1 [Example 2b]
0.001 to 0.01 µM | Cc1cc(F)c(C(=O)Nc2cccc(-c3nnnn3C3(C)CC3)n2)cc1-n1cnc(C2CC2)c1 [Example 3a, 5-(4-cyclopropyl-1H-imidazol-1-yl)-2-fluoro-N-(6-(1-(1-methylcyclo-propyl)-1H-tetrazol-5-yl)pyridin-2-yl)-4-methylbenzamide]
0.001 to 0.01 µM | Cc1cnc(C(=O)Nc2cccc(-n3nnnc3C(C)C)n2)cc1-n1cnc(C2CC2)c1 [Example 3b]
> 1 µM | Cc1cc(F)c(C(=O)Nc2cccc(-n3ccnc3C(C)C)n2)cc1-n1cnc(C2CC2)c1 [Example 3c, 5-(4-cyclopropyl-1H-imidazol-1-yl)-2-fluoro-N-(6-(2-isopropyl-1H-imidazol-1-yl)pyridin-2-yl)-4-methylbenzamide]
0.001 to 0.01 µM | CC(=O)OC[C@H](C)n1nnnc1-c1cccc(NC(=O)c2cc(-n3cnc(C4CC4)c3)c(C)cc2F)n1 [Example 4a, (S)-2-(5-(6-(5-(4-cyclopropyl-1H-imidazol-1-yl)-2-fluoro-4-methyl-benzamido)pyridin-2-yl)-1H-tetrazol-1-yl)propyl acetate]
0.01 to 0.1 µM | Cc1cnc(C(=O)Nc2cccc(-n3nnnc3C(C)C)n2)cc1-n1cnc(C(F)(F)F)c1 [Example 4b]
0.01 to 0.1 µM | Cc1cc(F)c(C(=O)Nc2cccc(-c3cnnn3C(C)C)n2)cc1-n1cnc(C2CC2)c1 [Example 4c, 5-(4-cyclopropyl-1H-imidazol-1-yl)-2-fluoro-N-(6-(1-isopropyl-1H-1,2,3-triazol-5-yl)pyridin-2-yl)-4-methylbenzamide]
0.001 to 0.01 µM | Cc1cc(F)c(C(=O)Nc2cccc(-c3nnnn3[C@@H](C)CO)n2)cc1-n1cnc(C2CC2)c1 [Example 5a, (S)-5-(4-cyclopropyl-1H-imidazol-1-yl)-2-fluoro-N-(6-(1-(1-hydroxypropan-2-yl)-1H-tetrazol-5-yl)pyridin-2-yl)-4-methylbenzamide]
0.001 to 0.01 µM | Cc1cnc(C(=O)Nc2cccc(-n3nnnc3C(C)C)n2)cc1-n1cnc(C(C)(C)C)c1 [Example 5b]
> 0.1 µM | CC(=O)OC[C@@H](C)n1nnnc1-c1cccc(NC(=O)c2cc(-n3cnc(C4CC4)c3)c(C)cc2F)n1 [Example 6a, (R)-2-(5-(6-(5-(4-cyclopropyl-1H-imidazol-1-yl)-2-fluoro-4-methyl-benzamido)pyridin-2-yl)-1H-tetrazol-1-yl)propyl acetate]
0.001 to 0.01 µM | Cc1cc(F)c(C(=O)Nc2cccc(-n3nnnc3C(C)C)n2)cc1-n1cnc(C(C)(C)C)c1 [Example 6b]
0.001 to 0.01 µM | Cc1cc(F)c(C(=O)Nc2cccc(-c3nnnn3[C@H](C)CO)n2)cc1-n1cnc(C2CC2)c1 [Example 7a, (R)-5-(4-cyclopropyl-1H-imidazol-1-yl)-2-fluoro-N-(6-(1-(1-hydroxypropan-2-yl)-1H-tetrazol-5-yl)pyridin-2-yl)-4-methylbenzamide]
0.001 to 0.01 µM | Cc1cc(F)c(C(=O)Nc2cccc(-c3nnnn3C3CCCC3)n2)cc1-n1cnc(C2CC2)c1 [Example 8a]
0.01 to 0.1 µM | Cc1cc(F)c(C(=O)Nc2cccc(-c3nnnn3CC(C)C)n2)cc1-n1cnc(C2CC2)c1 [Example 9a]
0.001 to 0.01 µM | Cc1cc(F)c(C(=O)Nc2cccc(-c3nnnn3C3CCC3)n2)cc1-n1cnc(C2CC2)c1 [Example 10a]
0.001 to 0.01 µM | Cc1cc(F)c(C(=O)Nc2cccc(-c3nnnn3C3CC(F)(F)C3)n2)cc1-n1cnc(C2CC2)c1 [Example 11a]

IC50 | Compound
0.001 to 0.01 µM | Cc1cc(F)c(C(=O)Nc2cccc(-c3nnnn3CC(F)F)n2)cc1-n1cnc(C2CC2)c1 [Example 12a]
0.001 to 0.01 µM | Cc1cc(F)c(C(=O)Nc2cccc(-c3nnnn3CC(C)(C)C)n2)cc1-n1cnc(C2CC2)c1 [Example 13a]
0.001 to 0.01 µM | Cc1cc(F)c(C(=O)Nc2cccc(-c3nnnn3[C@H](C)CF)n2)cc1-n1cnc(C2CC2)c1 [Example 14a]
0.001 to 0.01 µM | Cc1cc(F)c(C(=O)Nc2cccc(-c3nnnn3[C@@H](C)CF)n2)cc1-n1cnc(C2CC2)c1 [Example 15a]
0.01 to 0.1 µM | Cc1cc(F)c(C(=O)Nc2cccc(-c3nnnn3C(C)C(F)(F)F)n2)cc1-n1cnc(C2CC2)c1 (centres unmarked) [Example 16a]
0.001 to 0.01 µM | Cc1cc(F)c(C(=O)Nc2cccc(-c3nnnn3[C@@H]3CCOC3)n2)cc1-n1cnc(C2CC2)c1 [Example 17a]
0.001 to 0.01 µM | Cc1cc(F)c(C(=O)Nc2cccc(-c3nnnn3[C@H]3CCOC3)n2)cc1-n1cnc(C2CC2)c1 [Example 18a]
0.01 to 0.1 µM | CC(=O)NC[C@@H](C)n1nnnc1-c1cccc(NC(=O)c2cc(-n3cnc(C4CC4)c3)c(C)cc2F)n1 [Example 20a]
0.001 to 0.01 µM | Cc1cc(F)c(C(=O)Nc2cccc(-c3nnnn3[C@H]3C[C@@H](O)C3)n2)cc1-n1cnc(C2CC2)c1 [Example 21a]
0.001 to 0.01 µM | Cc1cc(F)c(C(=O)Nc2cccc(-c3nnnn3[C@H](C)CCO)n2)cc1-n1cnc(C2CC2)c1 [Example 22a]
0.001 to 0.01 µM | CC(=O)OCC[C@@H](C)n1nnnc1-c1cccc(NC(=O)c2cc(-n3cnc(C4CC4)c3)c(C)cc2F)n1 [Example 23a]
0.01 to 0.1 µM | CCCC(=O)OC[C@@H](C)n1nnnc1-c1cccc(NC(=O)c2cc(-n3cnc(C4CC4)c3)c(C)cc2F)n1 [Example 24a]
> 1 µM | Cc1cc(F)c(C(=O)Nc2cccc(-c3nnnn3[C@H](C)COC(=O)c3ccccc3)n2)cc1-n1cnc(C2CC2)c1 [Example 25a]
< 0.001 µM | Cc1cc(F)c(C(=O)Nc2cccc(-c3nnnn3C(CO)CO)n2)cc1-n1cnc(C2CC2)c1 [Example 26a]
0.01 to 0.1 µM | Cc1cc(F)c(C(=O)Nc2cccc(-c3nnnn3C(C)C)n2)cc1-n1cnc(C(F)(F)F)c1 [Example 27a]
0.001 to 0.01 µM | Cc1cc(F)c(C(=O)Nc2cccc(-c3nnnn3[C@H](C)CO)n2)cc1-n1cnc(C(F)(F)F)c1 [Example 28a]
0.001 to 0.01 µM | Cc1cc(F)c(C(=O)Nc2cccc(-c3nnnn3C(C)C)n2)cc1-n1cnc(C(C)(C)C)c1 [Example 29a]
0.001 to 0.01 µM | Cc1cc(F)c(C(=O)Nc2cccc(-c3nnnn3[C@H](C)CO)n2)cc1-n1cnc(C(C)(C)C)c1 [Example 30a]

Compound | IC50
CC(C)n1nnnc1-c1cccc(NC(=O)c2cc(-n3cnc(C4CC4)c3)c(C(F)F)cc2F)n1 [Example 31a, 5-(4-cyclopropyl-1H-imidazol-1-yl)-4-(difluoromethyl)-2-fluoro-N-(6-(1-isopropyl-1H-tetrazol-5-yl)pyridin-2-yl)benzamide] | 0.001 to 0.01 µM
